Experimental data reported in patent publication US9902736B2, “1-oxo/acylation-14-acylated oridonin derivative, preparation method therefor and application thereof” (HANGZHOU BENSHENG PHARMACEUTICAL CO., LTD., priority 2012, dated 2018).
Converted amounts (≈) assume the structure as drawn.

Tests used:
K562/ADR = assay: Leukemia cell growth inhibition, MTT, 72 h; assay type: cell-based; conditions: Homo sapiens
In short: (§1)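 Seed 6000 cells/well; next day add cpds at graded conc.; 37° C, 5% CO2, 72 h; viable cells by MTT. K562/ADR = drug-resistant CML, H9/Jurkat = ALL, Kasumi-1 = AML-M2.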

Kasumi-1 = assay: Leukemia cell growth inhibition, MTT, 72 h; assay type: cell-based; conditions: Homo sapiens
In short: as §1

SK-OV-3 = assay: Solid tumor cell growth inhibition, MTT, 72 h; assay type: cell-based; conditions: Homo sapiens, SK-OV-3, 72 h, MTT; for IC50: read-out: IC50 SK-OV-3; for IC90: read-out: IC90 SK-OV-3
In short: (§2)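 6000 cells/well; DMEM high glucose + 10% FBS; 24 h pre-incubation, 37° C, 5% CO2; test compounds at graded concentrations, mixed; viable-cell readout at end of exposure.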

U87-MG = assay: Solid tumor cell growth inhibition, MTT, 72 h; assay type: cell-based; conditions: Homo sapiens, U-87 MG
In short: as §2

PANC-1 = assay: Solid tumor cell growth inhibition, MTT, 72 h; assay type: cell-based; conditions: Homo sapiens
In short: as §2

Hep G2 = assay: Solid tumor cell growth inhibition, MTT, 72 h; assay type: cell-based; conditions: Homo sapiens, HepG2
In short: as §2

RKO = assay: Solid tumor cell growth inhibition, MTT, 72 h; assay type: cell-based; conditions: Homo sapiens
In short: as §2

MG-63 = assay: Solid tumor cell growth inhibition, MTT, 72 h; assay type: cell-based; conditions: Homo sapiens
In short: as §2

Becap-37 = assay: Solid tumor cell growth inhibition, MTT, 72 h; assay type: cell-based; conditions: Homo sapiens
In short: as §2

A549 = assay: Solid tumor cell growth inhibition, MTT, 72 h; assay type: cell-based; conditions: Homo sapiens
In short: as §2

PC-3 = assay: Solid tumor cell growth inhibition, MTT, 72 h; assay type: cell-based; conditions: Homo sapiens
In short: as §2

CaEs-17 = assay: Solid tumor cell growth inhibition, MTT, 72 h; assay type: cell-based; conditions: Homo sapiens, CaEs17
In short: as §2

H9 = assay: Leukemia cell growth inhibition, MTT, 72 h; assay type: cell-based, human; conditions: Homo sapiens, H9; 72 h, MTT
In short: as §1

Jurkat = assay: Leukemia cell growth inhibition, MTT, 72 h; assay type: cell-based, human; conditions: Homo sapiens, Jurkat; 72 h, MTT
In short: as §1

NB4 = assay: Leukemia cell growth inhibition, MTT, 72 h; assay type: cell-based, human; conditions: Homo sapiens, NB-4; 72 h, MTT
In short: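 Viability determined by MTT following a 72-hour, 37° C, 5% CO2 incubation with test compounds at different concentrations, added the day after seeding 6000 cells per well.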

RPMI 8226 = assay: Multiple myeloma cell growth inhibition, MTT, 72 h; assay type: cell-based; conditions: Homo sapiens
In short: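 Growth inhibition by MTT after 72 h drug exposure (37 °C, 5% CO2) over a concentration range of oridonin derivatives. RPMI 8226 cells plated at 6000 per well and dosed the following day.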

Hela = assay: Solid tumor cell growth inhibition, MTT, 72 h; assay type: cell-based, human; conditions: Homo sapiens, HeLa; 72 h, MTT
In short: as §2

CNE = assay: Solid tumor cell growth inhibition, MTT, 72 h; assay type: cell-based, human; conditions: Homo sapiens, CNE; 72 h, MTT
In short: as §2

MGC-803 = assay: Solid tumor cell growth inhibition, MTT, 72 h; assay type: cell-based, human; conditions: Homo sapiens, MGC-803; 72 h, MTT
In short: as §2

Hep-2 = assay: Solid tumor cell growth inhibition, MTT, 72 h; assay type: cell-based, human; conditions: Homo sapiens, HEp-2; 72 h, MTT
In short: as §2

| Compound | IC50 (K562/ADR) [µg/mL] | IC90 (K562/ADR) [µg/mL] | IC50 (Kasumi-1) [µg/mL] | IC90 (Kasumi-1) [µg/mL] | IC50 (SK-OV-3) [µg/mL] | IC90 (SK-OV-3) [µg/mL] | IC50 (U87-MG) [µg/mL] | IC90 (U87-MG) [µg/mL] | IC50 (PANC-1) [µg/mL] | IC90 (PANC-1) [µg/mL] | IC50 (Hep G2) [µg/mL] | IC90 (Hep G2) [µg/mL] | IC50 (RKO) [µg/mL] | IC90 (RKO) [µg/mL] | IC50 (MG-63) [µg/mL] | IC90 (MG-63) [µg/mL] | IC50 (Becap-37) [µg/mL] | IC90 (Becap-37) [µg/mL] | IC50 (A549) [µg/mL] | IC90 (A549) [µg/mL] | further results |
| --- | --- | --- | --- | --- | --- | --- | --- | --- | --- | --- | --- | --- | --- | --- | --- | --- | --- | --- | --- | --- | --- |
| C=C1C(=O)[C@]23[C@H](OC(=O)/C=C/c4ccccc4)[C@H]1CC[C@H]2[C@@]12CO[C@@]3(O)[C@@H](O)[C@@H]1C(C)(C)CCC2=O [BS-OR-019] | 0.43 (≈ 0.873 µM) | 1.74 (≈ 3.53 µM) | 0.58 (≈ 1.18 µM) | 1.55 (≈ 3.15 µM) | 1.41 (≈ 2.86 µM) | 3.86 (≈ 7.84 µM) | 0.77 (≈ 1.56 µM) | 2.43 (≈ 4.93 µM) | 1.53 (≈ 3.11 µM) | 9.62 (≈ 19.5 µM) | 0.94 (≈ 1.91 µM) | 14.6 (≈ 29.7 µM) | 0.38 (≈ 0.771 µM) | 0.89 (≈ 1.81 µM) | 0.35 (≈ 0.711 µM) | 0.79 (≈ 1.6 µM) | 0.89 (≈ 1.81 µM) | 8.43 (≈ 17.1 µM) | 1.66 (≈ 3.37 µM) | 4.43 (≈ 8.99 µM) | IC50 (PC-3): 1.41 µg/mL (≈ 2.86 µM); IC90 (PC-3): 3.86 µg/mL (≈ 7.84 µM); IC50 (CaEs-17): 0.89 µg/mL (≈ 1.81 µM); IC90 (CaEs-17): 5.62 µg/mL (≈ 11.4 µM); IC50 (H9): 2.69 µg/mL (≈ 5.46 µM); IC90 (H9): 5.41 µg/mL (≈ 11 µM); IC50 (Jurkat): 0.58 µg/mL (≈ 1.18 µM); IC90 (Jurkat): 2.48 µg/mL (≈ 5.03 µM); IC50 (NB4): 1.02 µg/mL (≈ 2.07 µM); IC90 (NB4): 3.66 µg/mL (≈ 7.43 µM); IC50 (RPMI 8226): 0.34 µg/mL (≈ 0.69 µM); IC90 (RPMI 8226): 1.7 µg/mL (≈ 3.45 µM); IC50 (Hela): 1.43 µg/mL (≈ 2.9 µM); IC90 (Hela): 3.74 µg/mL (≈ 7.59 µM); IC50 (CNE): 7.19 µg/mL (≈ 14.6 µM); IC90 (CNE): > 16 µg/mL; IC50 (MGC-803): 4.98 µg/mL (≈ 10.1 µM); IC90 (MGC-803): 12 µg/mL (≈ 24.4 µM); IC50 (Hep-2): 10.7 µg/mL (≈ 21.7 µM); IC90 (Hep-2): > 16 µg/mL |
| C=C1C(=O)[C@]23[C@H](OC(=O)c4ccccc4Br)[C@H]1CC[C@H]2[C@@]12CO[C@@]3(O)[C@@H](O)[C@@H]1C(C)(C)CCC2=O [BS-OR-020] | 0.73 (≈ 1.34 µM) | 2.31 (≈ 4.24 µM) | 0.76 (≈ 1.39 µM) | 2.85 (≈ 5.23 µM) | 2.56 (≈ 4.69 µM) | 7.07 (≈ 13 µM) | 1.19 (≈ 2.18 µM) | 3.69 (≈ 6.77 µM) | 2.32 (≈ 4.25 µM) | 6.09 (≈ 11.2 µM) | 1.68 (≈ 3.08 µM) | 7.35 (≈ 13.5 µM) | 0.84 (≈ 1.54 µM) | 1.94 (≈ 3.56 µM) | 0.76 (≈ 1.39 µM) | 4.52 (≈ 8.29 µM) | 1.31 (≈ 2.4 µM) | 3.95 (≈ 7.24 µM) | 2.76 (≈ 5.06 µM) | 5.78 (≈ 10.6 µM) | IC50 (PC-3): 2.56 µg/mL (≈ 4.69 µM); IC90 (PC-3): 7.07 µg/mL (≈ 13 µM); IC50 (CaEs-17): 1.78 µg/mL (≈ 3.26 µM); IC90 (CaEs-17): 7.28 µg/mL (≈ 13.3 µM); IC50 (H9): 0.89 µg/mL (≈ 1.63 µM); IC90 (H9): 1.84 µg/mL (≈ 3.37 µM); IC50 (Jurkat): 0.88 µg/mL (≈ 1.61 µM); IC90 (Jurkat): 4.31 µg/mL (≈ 7.9 µM); IC50 (NB4): 0.27 µg/mL (≈ 0.495 µM); IC90 (NB4): 1.34 µg/mL (≈ 2.46 µM); IC50 (RPMI 8226): 0.59 µg/mL (≈ 1.08 µM); IC90 (RPMI 8226): 3.84 µg/mL (≈ 7.04 µM); IC50 (Hela): 1.79 µg/mL (≈ 3.28 µM); IC90 (Hela): 7.19 µg/mL (≈ 13.2 µM); IC50 (CNE): 1.8 µg/mL (≈ 3.3 µM); IC90 (CNE): 7.21 µg/mL (≈ 13.2 µM); IC50 (MGC-803): 1.65 µg/mL (≈ 3.03 µM); IC90 (MGC-803): 8.86 µg/mL (≈ 16.2 µM); IC50 (Hep-2): 1.92 µg/mL (≈ 3.52 µM); IC90 (Hep-2): 7.4 µg/mL (≈ 13.6 µM) |
| C=C1C(=O)[C@]23[C@H](OC(=O)C4CCN(S(=O)(=O)c5ccccc5)CC4)[C@H]1CC[C@H]2[C@@]12CO[C@@]3(O)[C@@H](O)[C@@H]1C(C)(C)CCC2=O [BS-OR-032] | 1.09 (≈ 1.78 µM) | 2.97 (≈ 4.84 µM) | 1.5 (≈ 2.44 µM) | 2.92 (≈ 4.76 µM) | 3.07 (≈ 5 µM) | 5.41 (≈ 8.81 µM) | 1.26 (≈ 2.05 µM) | 4.56 (≈ 7.43 µM) | 3.61 (≈ 5.88 µM) | 7.88 (≈ 12.8 µM) | 3.17 (≈ 5.17 µM) | ≥ 17.2 | 0.89 (≈ 1.45 µM) | 1.99 (≈ 3.24 µM) | 0.98 (≈ 1.6 µM) | 1.97 (≈ 3.21 µM) | 2.93 (≈ 4.77 µM) | 10.5 (≈ 17.1 µM) | 5.68 (≈ 9.25 µM) | 9.98 (≈ 16.3 µM) | IC50 (PC-3): 3.07 µg/mL (≈ 5 µM); IC90 (PC-3): 5.41 µg/mL (≈ 8.81 µM); IC50 (CaEs-17): 1.62 µg/mL (≈ 2.64 µM); IC90 (CaEs-17): 11.7 µg/mL (≈ 19.1 µM); IC50 (H9): 6.71 µg/mL (≈ 10.9 µM); IC90 (H9): 12.7 µg/mL (≈ 20.7 µM); IC50 (Jurkat): 0.93 µg/mL (≈ 1.52 µM); IC90 (Jurkat): 6.15 µg/mL (≈ 10 µM); IC50 (NB4): 4.09 µg/mL (≈ 6.66 µM); IC90 (NB4): 9.77 µg/mL (≈ 15.9 µM); IC50 (RPMI 8226): 1.34 µg/mL (≈ 2.18 µM); IC90 (RPMI 8226): 2.95 µg/mL (≈ 4.81 µM); IC50 (Hela): 2.63 µg/mL (≈ 4.29 µM); IC90 (Hela): 5.67 µg/mL (≈ 9.24 µM); IC50 (CNE): > 16 µg/mL; IC90 (CNE): > 16 µg/mL; IC50 (MGC-803): 12.7 µg/mL (≈ 20.7 µM); IC90 (MGC-803): > 16 µg/mL; IC50 (Hep-2): > 16 µg/mL; IC90 (Hep-2): > 16 µg/mL |
